Test results: patent publication US12453726B2, “Methods of using factor B inhibitors” (priority 2020, dated 2025)
Where a name gives a salt, the structure may show the parent alone.

Assays:
[1] = test system: patients with C3 glomerulopathy; assay: Study CLNP023X2202, safety and tolerability; format: in vivo, human; settings: 200 mg b.i.d.
[2] = test system: patients with IgA nephropathy; assay: Study CLNP023X2203, safety and tolerability; format: in vivo, human; settings: 200 mg b.i.d.
alternative pathway = assay: Exposure-response model from First In Human study data (Wieslab assay); settings: dose of about 200 mg b.i.d., in >70% of subjects; model built on healthy volunteer data
Procedure: The exposure-response model developed with data from the First In Human (FIH) study with LNP023 hydrochloride in healthy volunteers predicts that a dose of about 200 mg b.i.d. would be needed to achieve >90% inhibition of the alternative pathway (Wieslab assay) in >70% of subjects. Given the risk of hemolysis and breakthroughs in cases of insufficient inhibition of complement activity, full inhibition is desired and modelling results provide additional support for the choice of the dose of 200 mg b.i.d. for PNH.

[3] = test system: anti-C5 antibody treatment naive PNH patients; assay: Phase 2 study interim analysis: LNP023 hydrochloride monotherapy in anti-C5 antibody treatment naive PNH patients; format: in vivo, human
Procedure: (§1) The dose of 200 mg LNP023 hydrochloride b.i.d. as continuous treatment has been selected for this Phase 3 study primarily based on the available efficacy and safety data obtained at the time of interim analyses from the two ongoing Phase 2 PNH studies (ClinicalTrials.gov Identifier: NCT03439839 and NCT03896152) and is supported by PKPD modeling results.
In the Phase 2 study (NCT03439839) in anti-C5 antibody treatment naive patients, participants received LNP023 hydrochloride monotherapy with sequential dose increments at Week 4 from LNP023 hydrochloride 25 mg b.i.d. to 100 mg b.i.d (sequence 1) or LNP023 hydrochloride 50 mg b.i.d. to 200 mg b.i.d. (sequence 2). An IA was conducted after 8 patients were randomized and 7 patients completed Week 8 visit assessments.
(§2) The hematological response participants achieved with LNP023 hydrochloride 200 mg b.i.d. add-on therapy was maintained with LNP023 hydrochloride monotherapy during the extension period (at the time of the IA) when eculizumab treatment was discontinued in 5/10 participants who continued with LNP023 hydrochloride monotherapy. Following the IA, two additional participants discontinued eculizumab treatment.

[4] = test system: PNH patients with active hemolysis despite treatment with eculizumab; assay: Phase 2 study CLNP023X2201 interim analysis: LNP023 hydrochloride add-on to eculizumab in PNH patients with active hemolysis; format: in vivo, human
Procedure: as §1
In the CLNP023X2201 study in patients with active hemolysis despite treatment with eculizumab, LNP023 hydrochloride at a dose of 200 mg b.i.d. was administered to 10 PNH participants (cohort 1) and at a dose of 50 mg b.i.d. to 6 PNH participants (cohort 2). An interim analysis (IA) was conducted after 10 participants (cohort 1) completed at least 12 weeks of treatment with LNP023 hydrochloride 200 mg b.i.d. add-on treatment to eculizumab.
as §2

[5] = 200 mg b.i.d., PNH participants
[6] = 200 mg b.i.d. added to eculizumab
[7] = 200 mg b.i.d. as add-on to eculizumab, cohort 1, interim analysis

## CCO[C@H]1CCN(Cc2c(OC)cc(C)c3[nH]ccc23)[C@H](c2ccc(C(=O)O)cc2)C1 [LNP023 hydrochloride, 4-((2S,4S)-(4-ethoxy-1-((5-methoxy-7-methyl-1H-indol-4-yl)methyl)piperidin-2-yl))benzoic acid hydrochloride]
[1]
  safety and tolerability: safe and well tolerated
[2]
  safety and tolerability: safe and well tolerated
Alternative pathway
  predicted inhibition of the alternative pathway (Wieslab assay): > 90%
[3]; [5]
  safety and tolerability: safe and well tolerated
[3]; monotherapy
  bilirubin (extravascular hemolysis): decrease
  haptoglobin (extravascular hemolysis): increase
  reticulocytes (extravascular hemolysis): decrease
[3]; monotherapy, dose levels ≥25 mg b.i.d.
  transfusion-free hemoglobin: early transfusion-free hemoglobin increase in the majority of participants
[3]; monotherapy, dose levels ≥25 mg b.i.d., all participants
  LDH reduction from baseline: more than 60%
[4]; [6]
  C3 deposition: fully reversed
  Fragment Bb (target engagement): profound and sustained reduction
  inhibition of the complement alternative pathway: sustained inhibition
  survival of PNH red blood cells: prolonged
[4]; [7]
  bilirubin (control of EVH): reduction
  haptoglobin (control of EVH): increase
  hemoglobin in the absence of red blood cell transfusions: normalization of hemoglobin in the majority of patients
  reticulocytes (control of EVH): reduction
[4]; 200 mg b.i.d. as add-on to eculizumab, cohort 1, interim analysis after at least 12 weeks
  control of IVH demonstrated by LDH: LDH reduction
[4]; 200 mg b.i.d. monotherapy, 5/10 participants who discontinued eculizumab
  hematological response during the extension period after eculizumab was discontinued: maintained
[4]; [5]
  safety and tolerability: safe and well tolerated
[4]; cohort 2, 50 mg b.i.d., preliminary, three participants required up-titration to 200 mg b.i.d.
  response at 50 mg b.i.d.: suboptimal response
